Source: the supplement of paper PMC10307832

Legend:
Assay in all cases: relative viability (nuclei count vs DMSO), 5 days (fraction); higher = more cells survive
Veliparib + Palbociclib = compound: C[C@]1(c2nc3c(C(N)=O)cccc3[nH]2)CCCN1 [Veliparib] + CC(=O)c1c(C)c2cnc(Nc3ccc(N4CCNCC4)cn3)nc2n(C2CCCC2)c1=O [Palbociclib] (partner 0.5 µM)
How it was run: (§1)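 Lung cancer cell lines in 1536-well plates got either a single drug or a fixed anchor-drug dose together with five library-drug doses (not always all listed) in √10 steps, by pin tool, on the day after seeding. Nuclei were counted after 5 days, and relative viability is the treated-to-vehicle ratio of nuclei counts. Values are medians of duplicate plates.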

Veliparib + Tozasertib = compound: C[C@]1(c2nc3c(C(N)=O)cccc3[nH]2)CCCN1 [Veliparib] + Cc1cc(Nc2cc(N3CCN(C)CC3)nc(Sc3ccc(NC(=O)C4CC4)cc3)n2)n[nH]1 [Tozasertib] (partner 0.1 µM)
How it was run: as §1

Veliparib + Alpelisib = compound: C[C@]1(c2nc3c(C(N)=O)cccc3[nH]2)CCCN1 [Veliparib] + Cc1nc(NC(=O)N2CCC[C@H]2C(N)=O)sc1-c1ccnc(C(C)(C)C(F)(F)F)c1 [Alpelisib] (partner 2 µM)
How it was run: as §1

Veliparib + Phenformin = compound: C[C@]1(c2nc3c(C(N)=O)cccc3[nH]2)CCCN1 [Veliparib] + N=C(N)NC(=N)NCCc1ccccc1 [Phenformin] (partner 250 µM)
How it was run: as §1

Cell Line	relative viability (Veliparib + Palbociclib; first compound 0.02 µM)	relative viability (Veliparib + Palbociclib; first compound 0.06325 µM)	relative viability (Veliparib + Palbociclib; first compound 0.2 µM)	relative viability (Veliparib + Palbociclib; first compound 0.6325 µM)	relative viability (Veliparib + Palbociclib; first compound 2 µM)	relative viability (Veliparib + Tozasertib; first compound 0.02 µM)	relative viability (Veliparib + Tozasertib; first compound 0.06325 µM)	relative viability (Veliparib + Tozasertib; first compound 0.2 µM)	relative viability (Veliparib + Tozasertib; first compound 0.6325 µM)	relative viability (Veliparib + Tozasertib; first compound 2 µM)	relative viability (Veliparib + Alpelisib; first compound 0.02 µM)	relative viability (Veliparib + Alpelisib; first compound 0.06325 µM)	relative viability (Veliparib + Alpelisib; first compound 0.2 µM)	relative viability (Veliparib + Alpelisib; first compound 0.6325 µM)	relative viability (Veliparib + Alpelisib; first compound 2 µM)	relative viability (Veliparib + Phenformin; first compound 0.02 µM)	relative viability (Veliparib + Phenformin; first compound 0.06325 µM)	relative viability (Veliparib + Phenformin; first compound 0.2 µM)	relative viability (Veliparib + Phenformin; first compound 0.6325 µM)	relative viability (Veliparib + Phenformin; first compound 2 µM)
HCC-366	0.352	0.371	0.369	0.371	0.341	0.159	0.147	0.108	0.137	0.112	0.452	0.234	0.365	0.384	0.411	0.582	0.578	0.576	0.522	0.636
HCC-827	0.458	0.459	0.51	0.176	0.454	0.436	0.443	0.434	0.376	0.398	0.922	1.02	0.986	0.971	0.899	0.357	0.396	0.43	0.368	0.387
HOP-62	0.384	0.333	0.483	0.343	0.368	0.327	0.382	0.419	0.328	0.39	1.11	0.928	1.15	0.836	0.785	0.514	0.61	0.61	0.613	0.723
LC-2-ad	0.485	0.496	0.508	0.477	0.505		0.456	0.486	0.417	0.445		0.783	0.846	0.926	0.897		0.551	0.631	0.589	0.472
LCLC-97TM1	0.219	0.194	0.233	0.23	0.249	0.231	0.237	0.204	0.197	0.253	0.263	0.271	0.258		0.232	0.428	0.435	0.439	0.428	0.499
LCLC-103H	0.44	0.417	0.48	0.44	0.456	0.528	0.339	0.463	0.443	0.485	1.13	0.896	0.936	1.06	0.949	0.328	0.353	0.341	0.325	0.327
LK-2	0.662	0.608	0.707	0.616	0.779		0.152	0.159	0.221	0.18		1.01	1.38	0.996	1.1		0.516	0.594	0.543	0.481
LOU-NH91	0.538	0.546	0.552	0.574	0.538	0.647	0.684	0.729	0.584	0.746	0.698	0.72	0.76	0.706	0.748	0.604	0.457	0.694	0.639	0.682
LU99A	0.495	0.399	0.418	0.381	0.451	0.328	0.271	0.239	0.245	0.279	0.504	0.459	0.544	0.509	0.569	0.928	0.838	0.612	0.75	0.976
